Measured values published in paper PMC3097154, “Antiviral activity of α-helical stapled peptides designed from the HIV-1 capsid dimerization domain” (Retrovirology, 2011).
Like-named read-outs stand apart in the source and are kept apart here. Positions of bridges follow the written chain, without caps; N, C: chain ends. Non-standard residues stand in square brackets, D forms with d. Residues, ends and D or L forms follow the SMILES beside them. S5 = C=CCCC[C@](C)(N)C(=O)O

Assays:
[1] = test system: wild type CTD (wtCTD) of HIV-1 CA; assay: ITC dilution of CTD dimers in presence of peptide; type: binding; settings: for Kdiss (apparent CTD dimer dissociation constant): ITC dilution, 30°C; for 200 μM CTD (fm), estimated fraction of CTD occurring as monomers: calculated from monomer-dimer equilibrium expressions
Description: The effect of the dimer interface peptide, NYAD-203, a soluble analog of NYAD-201, on dimer dissociation was first examined by isothermal titration calorimetry (ITC). Dilution of CTD by sequential ITC injections into buffer, pH 7.3, 30°;C gave a series of endothermic heat pulses (Figure 4) consistent with dissociation of protein oligomers modeled as dimers, with dimer dissociation constant (Kdiss) ~15 μM and dissociation enthalpy (ΔHdiss) of 10.7 kcal mole^-1. […] For such a mechanism, the apparent dimer dissociation constant should depend on the free peptide (inhibitor) concentration ([I]) and binding affinity (KI) as follows: [drawing 1]
or an approximate form that might be valid at high inhibitor concentrations: [drawing 2]
where Ci is the total peptide inhibitor concentration in the mixture. This analysis is, however, further complicated by apparent self-association of the peptide (see NMR section) that reduces the availability of free monomer (lower [I]) at higher concentrations and thus leads to underestimation of peptide binding affinities and a concentration dependence of apparent Ki. However, by use of the above equations and extrapolation to low concentrations, we obtain a value of Ki = 40 (±5) μM for the binding of stapled peptide (NYAD-203) monomer to CTD under these conditions.
The influence of the peptides on dimer dissociation of wild type CTD (wtCTD) was investigated by ITC (MicroCal VP-ITC) following established protocols. Proteins were exhaustively dialyzed against the 25 mM sodium phosphate buffer (pH 7.3) prior to experimental measurements. In a typical experiment, the ITC injection syringe was loaded with 250 μM protein, dissolved in dialysis buffer or dialysis buffer/peptide mixture and the calorimetric cell (ca. 1.4 ml active volume) initially contained only the identical buffer mixture. Typically titrations consisted of 28 injections of 10 μl, with 240-s equilibration between injections. The thermodynamic parameters were obtained and data were analyzed using MicroCal Origin 7.0 software, using an updated and corrected (June 2008) version of the dissociation analysis procedure, validated by comparison with earlier analysis methods.

[2] = test system: monomeric CTD mutant (W184A/M185A); assay: Binding to monomeric CTD mutant; set-up: species or system HIV-1; settings: data not shown
[3] = NMR of isolated peptide (self-association); type: physicochemical; settings: 20 mM phosphate buffer pH 7.0, 288 K
[4] = test system: HIV-1 CA; settings: 25°C, pH 7.3, ideal single-species model, CA alone 41,213
Description: In the second set of experiments, the possible effect of NYAD-203 on dimer stability was analyzed by sedimentation equilibrium.
Sedimentation equilibrium experiments were performed using a ProteomeLab XL-A analytical ultracentrifuge using 6-channel centerpieces in an An-60Ti rotor at 25°C. Protein samples were dialyzed into 50 mM sodium phosphate buffer (pH 7.3). […] Radial scans were measured at 280 nm. The data were fitted to an ideal single-species model as well as a rapid monomer-dimer equilibrium using the Beckman XL-A/XL-I Data Analysis Software (Version 6.03).

[5] = test system: GFP-Vpr-labeled HIV-1 virions in SupT1 cells; assay: Virus entry, GFP-Vpr-labeled HIV-1 virions, FACS; type: cell-based; settings: 111 nM

## CSCC[C@@H]1NC(=O)[C@H](Cc2c[nH]c3ccccc23)NC(=O)[C@@](C)(NC(=O)[C@H](CCCCN)NC(=O)[C@@H](NC(=O)[C@H](C)NC(=O)[C@H](CCC(N)=O)NC(=O)[C@H](C)N)C(C)C)CCC/C=C\CCC[C@@](C)(C(=O)N[C@H](C(=O)N[C@@H](CC(C)C)C(=O)N[C@@H](CC(C)C)C(=O)N[C@H](C(=O)N[C@@H](C)C(=O)N[C@@H](CCCCN)C(=O)N[C@@H](CCCCN)C(=O)N[C@@H](CCCCN)C(=O)O)C(C)C)[C@@H](C)O)NC(=O)[C@H]([C@@H](C)O)NC1=O [NYAD-203] (H-AQAVK[S5]WMT[S5]TLLVAKKK-OH; staple (Z) 6-10; N-terminus and C-terminus assumed)
[1]; CI 50 μM NYAD-203, 25 mM sodium phosphate pH 7.3, 250 μM CTD in syringe
  Kdiss (apparent CTD dimer dissociation constant): 31.2 (±6.6) μM
[1]; CI 50 μM NYAD-203
  200 μM CTD (fm), estimated fraction of CTD occurring as monomers: 24%
[1]; CI 200 μM NYAD-203, pH 7.3
  Kdiss (apparent CTD dimer dissociation constant): 33.2 (±3.9) μM
[1]; CI 200 μM NYAD-203
  200 μM CTD (fm), estimated fraction of CTD occurring as monomers: 25%
[1]; CI 350 μM NYAD-203, pH 7.3
  Kdiss (apparent CTD dimer dissociation constant): 40.5 (±6.2) μM
[1]; CI 350 μM NYAD-203
  200 μM CTD (fm), estimated fraction of CTD occurring as monomers: 27%
[2]
  affinity for monomeric CTD mutant (W184A/M185A): no measurable affinity
[3]
  self-association of isolated peptide: self-associates to form polymeric species
[4]; CA:NYAD-203 = 1:1 (30 μM CA, 30 μM peptide)
  apparent molecular weight of CA: 30,343 Daltons
[4]; CA:NYAD-203 = 1:3 (30 μM CA, 90 μM peptide)
  apparent molecular weight of CA: 27,338 Daltons

## IRQGPKEPFRDYVDR [NYAD-401]
[1]; unstapled control peptide
  ITC heat effect (binding): no apparent heat effect

## enfuvirtide [T-20]
[5]
  inhibition of viral entry: substantially inhibited viral entry
